Toxic doses and inconclusive results are not listed.
System: P388 leukemia ip, CD2F1 mice, survival T/C
Assay: NCI In Vivo Anticancer Drug Screen. Data for tumor model P388 Leukemia (intraperitoneal) in CD2F1 (CDF1) mice
Conditions: endpoint: median survival time, higher = longer survival
Method: The antitumor activity of compounds was measured in mice bearing transplantable tumors. Survival or tumor size were measured and the results are expressed as the measurement made in the treated group (T) divided by the measurement made in the vehicle treated control group (C). The tumor model used in this assay is P388 Leukemia (intraperitoneal) in CD2F1 (CDF1) mice

[1] = dose: 60.0 mg/kg/injection, schedule: Q01DX005 (ip), vehicle: saline with Tween-80

O=C1C=CC(=NS(=O)(=O)c2ccccc2)C=C1
T/C (dose: 12.5 mg/kg/injection, schedule: Q01DX001 (ip), vehicle: other): 100 % of control | T/C (dose: 25.0 mg/kg/injection, schedule: Q01DX001 (ip), vehicle: other): 100 % of control | T/C (dose: 50.0 mg/kg/injection, schedule: Q01DX001 (ip), vehicle: other): 100 % of control

COC(=O)c1cc(-c2ccco2)c2c(=O)n(-c3ccccc3)[nH]c2n1
T/C [1]: 103 % of control | T/C (dose: 120.0 mg/kg/injection, schedule: Q01DX005 (ip), vehicle: saline with Tween-80): 105 % of control | T/C (dose: 240.0 mg/kg/injection, schedule: Q01DX005 (ip), vehicle: saline with Tween-80): 94 % of control

Nc1ncnc2c1nnn2C1OC(CO)C(O)C1O (stereo not given)
T/C (dose: 50.0 mg/kg/injection, schedule: Q01DX009 (ip), vehicle: Klucel (hydroxypropylcellulose) (HPC)): 157 % of control | T/C (dose: 100.0 mg/kg/injection, schedule: Q01DX009 (ip), vehicle: Klucel (hydroxypropylcellulose) (HPC)): 100 % of control

COc1ccc([N+](=O)[O-])c2ccc(C(=O)O)nc12
T/C (dose: 50.0 mg/kg/injection, schedule: Q01DX005 (ip), vehicle: saline): 103 % of control | T/C (dose: 100.0 mg/kg/injection, schedule: Q01DX005 (ip), vehicle: saline): 97 % of control | T/C (dose: 200.0 mg/kg/injection, schedule: Q01DX005 (ip), vehicle: saline): 110 % of control

CC(C#N)C(N)=O (stereo not given)
T/C (dose: 12.5 mg/kg/injection, schedule: Q04DX003 (ip), vehicle: saline): 100 % of control | T/C (dose: 25.0 mg/kg/injection, schedule: Q04DX003 (ip), vehicle: saline): 105 % of control | T/C (dose: 50.0 mg/kg/injection, schedule: Q04DX003 (ip), vehicle: saline): 110 % of control

FC(F)(F)c1cc(-n2c(-c3ccccc3)nc(=S)c3c2CCCC3)cc(C(F)(F)F)c1
T/C (dose: 50.0 mg/kg/injection, schedule: Q01DX009 (ip), vehicle: saline with Tween-80): 100 % of control | T/C (dose: 100.0 mg/kg/injection, schedule: Q01DX009 (ip), vehicle: saline with Tween-80): 95 % of control | T/C (dose: 200.0 mg/kg/injection, schedule: Q01DX009 (ip), vehicle: saline with Tween-80): 94 % of control

O=C1N(c2ccccc2)C(=Nc2ccccc2)C(=Nc2ccccc2)N1c1ccccc1
T/C (dose: 50.0 mg/kg/injection, schedule: Q01DX005 (ip), vehicle: Klucel + Tween-80): 96 % of control | T/C (dose: 100.0 mg/kg/injection, schedule: Q01DX005 (ip), vehicle: Klucel + Tween-80): 91 % of control | T/C (dose: 200.0 mg/kg/injection, schedule: Q01DX005 (ip), vehicle: Klucel + Tween-80): 92 % of control

O=C(/C=C/c1ccc2c(c1)OCO2)c1cc(Cl)ccc1O
T/C (dose: 50.0 mg/kg/injection, schedule: Q01DX005 (ip), vehicle: saline with Tween-80): 93 % of control | T/C (dose: 100.0 mg/kg/injection, schedule: Q01DX005 (ip), vehicle: saline with Tween-80): 98 % of control | T/C (dose: 200.0 mg/kg/injection, schedule: Q01DX005 (ip), vehicle: saline with Tween-80): 102 % of control

c1ccc(-c2ccc[n+](CCCC[n+]3cccc(-c4ccccn4)c3)c2)nc1
T/C (dose: 7.5 mg/kg/injection, schedule: Q01DX005 (ip), vehicle: saline): 106 % of control | T/C (dose: 15.0 mg/kg/injection, schedule: Q01DX005 (ip), vehicle: saline): 106 % of control

CCOc1cc2c(cc1Cc1cc(OC)c(OC)c(OC)c1)OCO2
T/C (dose: 60.0 mg/kg/injection, schedule: Q01DX005 (ip), vehicle: Klucel (hydroxypropylcellulose) (HPC)): 91 % of control | T/C (dose: 120.0 mg/kg/injection, schedule: Q01DX005 (ip), vehicle: Klucel (hydroxypropylcellulose) (HPC)): 98 % of control | T/C (dose: 240.0 mg/kg/injection, schedule: Q01DX005 (ip), vehicle: Klucel (hydroxypropylcellulose) (HPC)): 86 % of control

N#CC(Cc1ccccc1Cl)C(=O)O (stereo not given)
T/C (dose: 12.5 mg/kg/injection, schedule: Q01DX009 (none), vehicle: saline): 99 % of control | T/C (dose: 25.0 mg/kg/injection, schedule: Q01DX009 (none), vehicle: saline): 92 % of control | T/C (dose: 50.0 mg/kg/injection, schedule: Q01DX009 (none), vehicle: saline): 90 % of control | T/C (dose: 100.0 mg/kg/injection, schedule: Q01DX009 (none), vehicle: saline): 90 % of control

CCN(CC)C(=S)N1C(=O)C2C3CCC(O3)C2C1=O (stereo not given)
T/C (dose: 15.0 mg/kg/injection, schedule: Q01DX005 (ip), vehicle: saline with Tween-80): 101 % of control | T/C (dose: 30.0 mg/kg/injection, schedule: Q01DX005 (ip), vehicle: saline with Tween-80): 104 % of control | T/C [1]: 110 % of control

COC(=O)C(CS)NC(=O)C(Cc1c[nH]c2ccccc12)NC(=O)OC(C)(C)C (stereo not given)
T/C (dose: 12.5 mg/kg/injection, schedule: Q01DX009 (ip), vehicle: other): 88 % of control | T/C (dose: 25.0 mg/kg/injection, schedule: Q01DX009 (ip), vehicle: other): 103 % of control | T/C (dose: 50.0 mg/kg/injection, schedule: Q01DX009 (ip), vehicle: other): 100 % of control | T/C (dose: 100.0 mg/kg/injection, schedule: Q01DX009 (ip), vehicle: other): 99 % of control | T/C (dose: 200.0 mg/kg/injection, schedule: Q01DX009 (ip), vehicle: other): 103 % of control

Reference: PubChem BioAssay AID330 (DTP/NCI, 2004)
